Results published in patent US20230233541A1, “SUBSTITUTED BENZAMIDES AS MODULATORS OF TREX1” (Constellation Pharmaceuticals, Inc., priority 2020, published 2023).

Key:
[1] = target: T1, full length human TREX1 (Homo sapiens, UniProt Q9NSU2); experiment: TREX1 Biochemical Assay (fluorescence assay, degradation of dsDNA substrate); details: 150 pM TREX1, 60 nM dsDNA substrate, 25 minutes at room temperature; read-out: hTREX1 EC50
T1 construct: N-terminally His-Tev tagged full length human TREX1; His-Tev (His tag with TEV protease site) (N); made in house; host or cells: E. coli
T1 sequence (Q9NSU2 1-314): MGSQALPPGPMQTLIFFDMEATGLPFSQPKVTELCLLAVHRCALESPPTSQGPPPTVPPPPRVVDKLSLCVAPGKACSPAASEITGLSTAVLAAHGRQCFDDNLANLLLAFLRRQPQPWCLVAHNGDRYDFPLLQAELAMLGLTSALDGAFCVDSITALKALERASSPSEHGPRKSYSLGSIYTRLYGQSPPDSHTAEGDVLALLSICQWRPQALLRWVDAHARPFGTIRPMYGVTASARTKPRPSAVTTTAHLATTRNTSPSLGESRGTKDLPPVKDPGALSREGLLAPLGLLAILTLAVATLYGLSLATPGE
Procedure: Degradation of the dsDNA liberates free fluorophore to produce a fluorescent signal. Specifically, 7.5 μL of N-terminally His-Tev tagged full length human TREX1 (expressed in E. coli and purified in house) in reaction buffer (50 mM Tris (pH 7.4), 150 mM NaCl, 2 mM DTT, 0.1 mg/mL BSA, 0.01% (v/v) Tween-20 and 100 mM MgCl2) was added to a 384-well Black ProxiPlate Plus (Perkin Elmer) which already contained compound (150 nL) at varying concentrations as a 10-point dose-response in DMSO. To this was added 7.5 μL of dsDNA substrate (Strand A: 5′ TEX615/GCT AGG CAG 3′; Strand B: 5′ CTG CCT AGC/IAbRQSp (Integrated DNA Technologies)) in reaction buffer. Final concentrations were 150 pM TREX1, 60 nM dsDNA substrate in reaction buffer with 1.0% DMSO (v/v). After 25 minutes at room temperature, reactions were quenched by the addition of 5 μL of stop buffer (same as reaction buffer plus 200 mM EDTA). Final concentrations in the quenched reaction were 112.5 pM TREX1, 45 nM DNA and 50 mM EDTA in a volume of 20 μL. After a 5-minute incubation at room temperature, plates were read in a laser sourced Envision (Perkin-Elmer), measuring fluorescence at 615 nm following excitation w/570 nm light. IC50 values were calculated by comparing the measured fluorescence at 615 nm ratio relative to control wells pre-quenched w/stop buffer (100% inhibition) and no inhibitor (0% inhibition) controls as using non-linear least square four parameter fits and either Genedata or GraphPad Prism (GraphPad Software, Inc.).

[2] = target: T2, human TREX2 (residues M44-A279) (Homo sapiens, UniProt Q9BQ50); experiment: TREX2 Biochemical Assay (fluorescence assay, degradation of dsDNA substrate); details: 2.5 nM TREX2, 60 nM dsDNA substrate, 25 minutes at room temperature; read-out: hTREX2 EC50
T2 construct: human TREX2 (residues M44-A279, expressed in E. coli); His-Tev (His tag with TEV protease site) (N); made in house; host or cells: E. coli
T2 sequence (Q9BQ50 44-279 isoform Q9BQ50-1): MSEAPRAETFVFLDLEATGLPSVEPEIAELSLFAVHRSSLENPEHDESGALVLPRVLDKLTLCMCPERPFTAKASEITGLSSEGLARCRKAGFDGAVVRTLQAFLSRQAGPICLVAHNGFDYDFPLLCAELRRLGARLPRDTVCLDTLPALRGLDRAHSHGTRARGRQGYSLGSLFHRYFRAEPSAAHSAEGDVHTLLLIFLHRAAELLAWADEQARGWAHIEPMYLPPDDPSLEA
Procedure: Degradation of the dsDNA liberates free fluorophore to produce a fluorescent signal. Specifically, 7.5 μL of N-terminally His-Tev tagged human TREX2 (residues M44-A279, expressed in E. coli and purified in house) in reaction buffer (50 mM Tris (pH 7.4), 150 mM NaCl, 2 mM DTT, 0.1 mg/mL BSA, 0.01% (v/v) Tween-20 and 100 mM MgCl2) was added to a 384-well Black ProxiPlate Plus (Perkin Elmer) which already contained compound (150 nL) at varying concentrations as a 10-point dose-response in DMSO. To this was added 7.5 μL of dsDNA substrate (Strand A: 5′ TEX615/GCT AGG CAG 3′; Strand B: 5′ CTG CCT AGC/IAbRQSp (IDT)) in reaction buffer. Final concentrations were 2.5 nM TREX2, 60 nM dsDNA substrate in reaction buffer with 1.0% DMSO (v/v). After 25 minutes at room temperature, reactions were quenched by the addition of 5 μL of stop buffer (same as reaction buffer plus 200 mM EDTA). Final concentrations in the quenched reaction mixture were […] TREX2, 45 nM DNA and 50 mM EDTA in a volume of 20 μL. After a 5-minute incubation at room temperature, plates were read in a laser sourced Envision (Perkin-Elmer), measuring fluorescence at 615 nm following excitation w/570 nm light. IC50 values were calculated by comparing the measured fluorescence at 615 nm ratio relative to control wells pre-quenched w/stop buffer (100% inhibition) and no inhibitor (0% inhibition) controls as using non-linear least square four parameter fits and either Genedata or GraphPad Prism (GraphPad Software, Inc.).

Compound | EC50 [1] [nM] | EC50 [2] [µM]
COc1cc(C(=O)N(Cc2cccnc2)Cc2ccc(Cl)cc2Cl)cc(Cl)c1O [Compound 22] | > 10000 | > 100
Cc1ccccc1CN(Cc1ccc(C(=O)O)nc1)C(=O)c1cc(F)cc(F)c1 [Compound 193] | 100 to 1000 | 10 to 100
Cc1cc(-c2ccc(CN(Cc3ccccc3Cl)C(=O)c3cc(F)cc(F)c3)cn2)[nH]n1 [Compound 219] | 1000 to 10000 | 10 to 100
O=C(O)c1ccc(CN(Cc2cc(Cl)ccc2Cl)C(=O)c2cc(F)cc(F)c2)cn1 [Compound 187] | < 100 | 1 to 10
O=C(c1cccc(F)c1)N(Cc1cccnc1)Cc1cccc(Cl)c1Cl [Compound 136] | 100 to 1000 | 10 to 100
O=C(O)Cn1cc(CN(Cc2ccc(Cl)cc2Cl)C(=O)c2cc(F)cc(F)c2)cn1 [Compound 165, 2-(4-((N-(2,4-dichlorobenzyl)-3,5-difluorobenzamido)methyl)-1H-pyrazol-1-yl)acetic acid] | 1000 to 10000 | > 100
CC(C)(C)c1ccc(C(=O)N(Cc2cccnc2)Cc2ccc(Cl)cc2Cl)cc1 [Compound 82] | > 10000 | > 100
O=C(O)c1ccc(CN(Cc2ccc(Cl)cc2Cl)C(=O)c2cc(F)cc(F)c2)cc1 [Compound 168] | 1000 to 10000 | 10 to 100
O=C(O)c1ccc(CN(Cc2ccccc2Cl)C(=O)c2cccc(F)c2)cn1 [Compound 151] | 100 to 1000 | 10 to 100
O=C(CN1CCCC1)N(Cc1cccnc1)Cc1ccc(Cl)cc1Cl [Compound 91] | > 10000 | > 100
CC[C@H](c1cccc(Cl)c1Cl)N(Cc1ccc(C(=O)O)nc1)C(=O)c1cc(F)cc(F)c1 [Compound 255] | < 100 | < 1
CC[C@@H](c1ccc(OC)c(OC)c1Cl)N(Cc1ccc(C(=O)O)nc1)C(=O)c1cc(F)cc(F)c1 [Compound 227] | < 100 | 1 to 10
O=C(c1ccc(O)c(Br)c1)N(Cc1cccnc1)Cc1cc(Cl)cc(Cl)c1 [Compound 73] | > 10000 | > 100
COC(=O)CC[C@@H](c1ccccc1Cl)N(Cc1cccnc1)C(=O)c1cc(F)cc(F)c1 [Compound 242] | < 100 | 10 to 100
COc1cc(C(=O)N(Cc2cccnc2)Cc2cc(Cl)cc(Cl)c2)ccc1F [Compound 50] | > 10000 | > 100
Cc1ccc(CN(Cc2ccc(Cl)cc2Cl)C(=O)c2cccc(F)c2)cn1 [Compound 110] | > 10000 | > 100
O=C(c1ccc(-c2ccccc2)cc1)N(Cc1cccnc1)Cc1ccc(Cl)cc1Cl [Compound 24] | > 10000 | > 100
O=C(c1cc(F)cc(F)c1)N(Cc1cnc2c(=O)[nH]c(=O)[nH]c2c1)Cc1cccc(Cl)c1Cl [Compound 181] | 100 to 1000 | 1 to 10
O=C(c1cncnc1)N(Cc1cccnc1)Cc1ccc(Cl)cc1Cl [Compound 100] | > 10000 | > 100
O=C(c1cccc(-c2ccccc2)c1)N(Cc1cccnc1)Cc1cc(Cl)cc(Cl)c1 [Compound 56] | > 10000 | > 100
O=C(c1ncccn1)N(Cc1cccnc1)Cc1ccc(Cl)cc1Cl [Compound 102] | > 10000 | > 100
O=C(c1ccccc1N1CCCCC1)N(Cc1cccnc1)Cc1ccc(Cl)cc1Cl [Compound 42] | > 10000 | > 100
CC[C@H](c1ccc(OC)c(OC)c1Cl)N(Cc1ccc(C(=O)O)nc1)C(=O)c1cc(F)cc(F)c1 [Compound 226] | < 100 | 1 to 10
CN(C)c1cc(C(=O)O)ncc1CN(Cc1cccc(Cl)c1Cl)C(=O)c1cc(F)cc(F)c1 [Compound 209] | < 100 | 10 to 100
O=C(O)c1ccc(CN(Cc2ccccc2OC(F)(F)F)C(=O)c2cc(F)cc(F)c2)cn1 [Compound 199] | 1000 to 10000 | 10 to 100
O=C(c1cccc(Oc2ccccc2)c1)N(Cc1cccnc1)Cc1cc(Cl)cc(Cl)c1 [Compound 66] | > 10000 | > 100
